Test results reported in US20260250318A1, “COMPOSITIONS AND METHODS FOR CROSSING THE BLOOD BRAIN BARRIER” (VOYAGER THERAPEUTICS, INC., priority 2022, published 2026).

What was measured:
[1] = system: brains, heart, liver, muscle, and DRG of the NHPs; assay: Maturation of TTM-001 and TTM-002 capsids, NGS enrichment in NHP tissues; assay type: in vivo; conditions: relative to AAV9 control
Procedure, shortened: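 Variants carry mutations within and flanking the loop IV peptide insert: positions 450–466 were triplet-randomized, while positions 449–466 received low-frequency point mutations. The combined pool went into two NHPs, and each peptide was scored by NGS enrichment ratio against AAV9.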

[2] = system: brain; assay: Matured TTM-001 and TTM-002 variants, NGS enrichment in mouse brain; assay type: in vivo, mice; conditions: relative to AAV9 control
[3] = NGS fold-enrichment, DRG of NHPs
[4] = NGS fold-enrichment, RNA, brain of NHPs
[5] = NGS fold-enrichment, heart of NHPs
[6] = NGS fold-enrichment, liver DNA of NHPs
[7] = NGS fold-enrichment, liver RNA of NHPs
[8] = NGS fold-enrichment, muscle of NHPs
[9] = NGS fold-enrichment, brain of mice
[10] = NGS fold-enrichment of matured AAV capsid variants, NHP brain, RNA
[11] = NGS fold-enrichment of RNA, NHP brain
[12] = NGS fold-enrichment, NHP liver DNA
[13] = NGS fold-enrichment, NHP liver RNA
[14] = NGS fold-enrichment, NHP muscle
[15] = NGS fold-enrichment, mouse brain

Row | Sequence | Fold Enrichment relative to AAV9, DRG (NHP) [1, 3] | Fold Enrichment relative to AAV9, Brain (NHP) [1, 4] | Fold Enrichment relative to AAV9, Heart (NHP) [1, 5] | Fold Enrichment relative to AAV9, Liver DNA (NHP) [1, 6] | Fold Enrichment relative to AAV9, Liver RNA (NHP) [1, 7] | Fold Enrichment relative to AAV9, Muscle (NHP) [1, 8] | Fold Enrichment relative to AAV9, Brain (Mouse) [2, 9] | further results
1 | KNADGSGSPHSKAQNQQT | 0.000 fold | 60.944 fold | 0.000 fold | 0.085 fold | 1.239 fold | 0.000 fold | 104.503 fold | –
2 | KTNNGGGSPHSKAQNLQT | – | – | – | – | – | – | – | Fold Enrichment relative to AAV9, Brain (NHP) [1, 10]: 54.963 fold; Fold Enrichment relative to AAV9, DRG (NHP) ([1]; NHP DRG): 0.000 fold; Fold Enrichment relative to AAV9, Heart (NHP) ([1]; NHP heart): 0.000 fold; Fold Enrichment relative to AAV9, Liver DNA (NHP) ([1]; NHP liver, DNA): 0.089 fold; Fold Enrichment relative to AAV9, Liver RNA (NHP) ([1]; NHP liver, RNA): 0.000 fold; Fold Enrichment relative to AAV9, Muscle (NHP) ([1]; NHP muscle): 0.000 fold; Fold Enrichment relative to AAV9, Brain (Mouse) ([2]; mouse brain): 80.506 fold
3 | KTINGGGSPHSKAQSQQI | 0.000 fold | 74.264 fold | 0.000 fold | 0.235 fold | 0.000 fold | 0.000 fold | 67.651 fold | –
4 | KGGEGSGSPHSKAQNQQT | – | – | – | – | – | – | – | Fold Enrichment relative to AAV9, Brain (NHP) [1, 10]: 58.472 fold; Fold Enrichment relative to AAV9, DRG (NHP) ([1]; NHP DRG): 0.000 fold; Fold Enrichment relative to AAV9, Heart (NHP) ([1]; NHP heart): 0.034 fold; Fold Enrichment relative to AAV9, Liver DNA (NHP) ([1]; NHP liver, DNA): 0.066 fold; Fold Enrichment relative to AAV9, Liver RNA (NHP) ([1]; NHP liver, RNA): 0.037 fold; Fold Enrichment relative to AAV9, Muscle (NHP) ([1]; NHP muscle): 0.000 fold; Fold Enrichment relative to AAV9, Brain (Mouse) ([2]; mouse brain): 91.023 fold
5 | KTENLSGSPHSKAQNQQT | 0.070 fold | 70.303 fold | 0.000 fold | 0.470 fold | 0.395 fold | 0.000 fold | 107.385 fold | –
6 | KTDKGSGSPHSKAQNQQT | – | – | – | – | – | – | – | Fold Enrichment relative to AAV9, Brain (NHP) [1, 11]: 94.572 fold; Fold Enrichment relative to AAV9, DRG (NHP) ([1]; NGS fold-enrichment, NHP DRG): 0.000 fold; Fold Enrichment relative to AAV9, Heart (NHP) ([1]; NGS fold-enrichment, NHP heart): 0.037 fold; Fold Enrichment relative to AAV9, Liver DNA (NHP) [1, 12]: 0.367 fold; Fold Enrichment relative to AAV9, Liver RNA (NHP) [1, 13]: 0.951 fold; Fold Enrichment relative to AAV9, Muscle (NHP) [1, 14]: 0.000 fold; Fold Enrichment relative to AAV9, Brain (Mouse) [2, 15]: 47.888 fold
7 | KIINGRDSPHKSGQDQQT | – | – | – | – | – | – | – | Fold Enrichment relative to AAV9, Brain (NHP) [1, 11]: 78.773 fold; Fold Enrichment relative to AAV9, DRG (NHP) ([1]; NGS fold-enrichment, NHP DRG): 0.000 fold; Fold Enrichment relative to AAV9, Heart (NHP) ([1]; NGS fold-enrichment, NHP heart): 0.254 fold; Fold Enrichment relative to AAV9, Liver DNA (NHP) [1, 12]: 0.156 fold; Fold Enrichment relative to AAV9, Liver RNA (NHP) [1, 13]: 0.000 fold; Fold Enrichment relative to AAV9, Muscle (NHP) [1, 14]: 0.000 fold; Fold Enrichment relative to AAV9, Brain (Mouse) [2, 15]: 16.132 fold
8 | KTDRMSGSPHSKAQNQQT | 0.000 fold | 65.143 fold | 0.000 fold | 0.103 fold | 0.332 fold | 0.000 fold | 104.890 fold | –
9 | KTINGSGSPHSKAQNTHD | – | – | – | – | – | – | – | Fold Enrichment relative to AAV9, Brain (NHP) [1, 10]: 58.108 fold; Fold Enrichment relative to AAV9, DRG (NHP) ([1]; NHP DRG): 0.000 fold; Fold Enrichment relative to AAV9, Heart (NHP) ([1]; NHP heart): 0.027 fold; Fold Enrichment relative to AAV9, Liver DNA (NHP) ([1]; NHP liver, DNA): 0.126 fold; Fold Enrichment relative to AAV9, Liver RNA (NHP) ([1]; NHP liver, RNA): 0.410 fold; Fold Enrichment relative to AAV9, Muscle (NHP) ([1]; NHP muscle): 0.000 fold; Fold Enrichment relative to AAV9, Brain (Mouse) ([2]; mouse brain): 81.189 fold
10 | KTINGSGSPHSKAQAIHT | – | – | – | – | – | – | – | Fold Enrichment relative to AAV9, Brain (NHP) [1, 10]: 56.047 fold; Fold Enrichment relative to AAV9, DRG (NHP) ([1]; NHP DRG): 0.000 fold; Fold Enrichment relative to AAV9, Heart (NHP) ([1]; NHP heart): 0.000 fold; Fold Enrichment relative to AAV9, Liver DNA (NHP) ([1]; NHP liver, DNA): 0.890 fold; Fold Enrichment relative to AAV9, Liver RNA (NHP) ([1]; NHP liver, RNA): 0.887 fold; Fold Enrichment relative to AAV9, Muscle (NHP) ([1]; NHP muscle): 212.32 fold; Fold Enrichment relative to AAV9, Brain (Mouse) ([2]; mouse brain): 81.908 fold
11 | KTANGSGSPHSKAQYQQT | 0.000 fold | 73.038 fold | 0.000 fold | 0.160 fold | 0.153 fold | 0.000 fold | 139.451 fold | –
12 | KTSNGSGSPHSKAQNPPT | 0.000 fold | 91.528 fold | 0.000 fold | 0.039 fold | 0.000 fold | 0.000 fold | 51.541 fold | Fold Enrichment relative to AAV9, Brain (NHP) [1, 11]: 91.528 fold; Fold Enrichment relative to AAV9, DRG (NHP) ([1]; NGS fold-enrichment, NHP DRG): 0.000 fold; Fold Enrichment relative to AAV9, Heart (NHP) ([1]; NGS fold-enrichment, NHP heart): 0.000 fold; Fold Enrichment relative to AAV9, Liver DNA (NHP) [1, 12]: 0.039 fold; Fold Enrichment relative to AAV9, Liver RNA (NHP) [1, 13]: 0.000 fold; Fold Enrichment relative to AAV9, Muscle (NHP) [1, 14]: 0.000 fold; Fold Enrichment relative to AAV9, Brain (Mouse) [2, 15]: 51.541 fold
13 | KTVNRNGSPHSKAQNQQT | 0.000 fold | 133.016 fold | 0.416 fold | 0.000 fold | 0.000 fold | 0.000 fold | 85.361 fold | Fold Enrichment relative to AAV9, Brain (NHP) [1, 11]: 133.016 fold; Fold Enrichment relative to AAV9, DRG (NHP) ([1]; NGS fold-enrichment, NHP DRG): 0.000 fold; Fold Enrichment relative to AAV9, Heart (NHP) ([1]; NGS fold-enrichment, NHP heart): 0.416 fold; Fold Enrichment relative to AAV9, Liver DNA (NHP) [1, 12]: 0.000 fold; Fold Enrichment relative to AAV9, Liver RNA (NHP) [1, 13]: 0.000 fold; Fold Enrichment relative to AAV9, Muscle (NHP) [1, 14]: 0.000 fold; Fold Enrichment relative to AAV9, Brain (Mouse) [2, 15]: 85.361 fold
14 | KTESTSGSPHSKAQNQQT | 0.000 fold | 66.649 fold | 0.009 fold | 0.176 fold | 1.688 fold | 0.000 fold | 95.861 fold | –
15 | KTINGSGSPHSKAQGQQA | 0.000 fold | 64.128 fold | 0.185 fold | 0.195 fold | 0.063 fold | 0.000 fold | 64.116 fold | –
16 | KTDKVSGSPHSKAQNQQT | 0.000 fold | 60.935 fold | 0.015 fold | 0.128 fold | 0.765 fold | 0.000 fold | 146.657 fold | –
17 | KTIKGQDSPHKIGQNQQT | – | – | – | – | – | – | – | Fold Enrichment relative to AAV9, Brain (NHP) [1, 11]: 110.357 fold; Fold Enrichment relative to AAV9, DRG (NHP) ([1]; NGS fold-enrichment, NHP DRG): 0.000 fold; Fold Enrichment relative to AAV9, Heart (NHP) ([1]; NGS fold-enrichment, NHP heart): 0.103 fold; Fold Enrichment relative to AAV9, Liver DNA (NHP) [1, 12]: 0.135 fold; Fold Enrichment relative to AAV9, Liver RNA (NHP) [1, 13]: 0.166 fold; Fold Enrichment relative to AAV9, Muscle (NHP) [1, 14]: 0.058 fold; Fold Enrichment relative to AAV9, Brain (Mouse) [2, 15]: 11.829 fold
